In patent publication US20250136606A1, “MODULATORS OF TRPML, THEIR COMPOSITIONS AND METHODS OF USE” (Caraway Therapeutics, Inc., priority 2021, published 2025):

Key:
[1] = target: T1, TRPML2 (Homo sapiens, UniProt Q8IZK6); experiment: Fluorescent TRPML2 assay (performed as for TRPML1, substituting the TRPML2 subtype); format: cell-based
T1 construct: expressed in transfected cells
T1 sequence (Q8IZK6 1-566): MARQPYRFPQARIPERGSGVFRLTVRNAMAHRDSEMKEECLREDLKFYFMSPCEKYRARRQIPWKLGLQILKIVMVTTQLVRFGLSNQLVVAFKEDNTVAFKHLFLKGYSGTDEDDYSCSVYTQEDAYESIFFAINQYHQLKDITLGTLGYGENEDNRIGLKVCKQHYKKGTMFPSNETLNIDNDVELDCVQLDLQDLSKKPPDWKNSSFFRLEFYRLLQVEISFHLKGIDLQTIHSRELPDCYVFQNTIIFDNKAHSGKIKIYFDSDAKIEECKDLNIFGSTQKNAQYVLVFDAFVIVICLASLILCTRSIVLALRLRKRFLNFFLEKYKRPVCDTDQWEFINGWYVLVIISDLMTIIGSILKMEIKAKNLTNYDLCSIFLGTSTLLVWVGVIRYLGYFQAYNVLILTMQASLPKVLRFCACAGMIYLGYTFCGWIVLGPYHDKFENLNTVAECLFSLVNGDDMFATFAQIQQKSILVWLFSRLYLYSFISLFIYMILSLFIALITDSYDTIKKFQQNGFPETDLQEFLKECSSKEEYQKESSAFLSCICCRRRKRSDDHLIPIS
How it was run: (§1)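 Compound series (final 6 nM-20 μM, half-log, triplicate) were added to Fluo4-AM-loaded HEK-293 Trex cells in 10 mM calcium Ringer's, expressing the human TRPML subtype after doxycycline 0.5 ug/mL induction. Percent activity versus positive/negative controls from 480/540 nm fluorescence; EC50 by non-linear regression.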

[2] = target: T2, TRPML3 (Homo sapiens, UniProt Q8TDD5); experiment: Fluorescent TRPML3 assay (performed as for TRPML1, substituting the TRPML3 subtype); format: cell-based
T2 construct: expressed in transfected cells
T2 sequence (Q8TDD5 1-553): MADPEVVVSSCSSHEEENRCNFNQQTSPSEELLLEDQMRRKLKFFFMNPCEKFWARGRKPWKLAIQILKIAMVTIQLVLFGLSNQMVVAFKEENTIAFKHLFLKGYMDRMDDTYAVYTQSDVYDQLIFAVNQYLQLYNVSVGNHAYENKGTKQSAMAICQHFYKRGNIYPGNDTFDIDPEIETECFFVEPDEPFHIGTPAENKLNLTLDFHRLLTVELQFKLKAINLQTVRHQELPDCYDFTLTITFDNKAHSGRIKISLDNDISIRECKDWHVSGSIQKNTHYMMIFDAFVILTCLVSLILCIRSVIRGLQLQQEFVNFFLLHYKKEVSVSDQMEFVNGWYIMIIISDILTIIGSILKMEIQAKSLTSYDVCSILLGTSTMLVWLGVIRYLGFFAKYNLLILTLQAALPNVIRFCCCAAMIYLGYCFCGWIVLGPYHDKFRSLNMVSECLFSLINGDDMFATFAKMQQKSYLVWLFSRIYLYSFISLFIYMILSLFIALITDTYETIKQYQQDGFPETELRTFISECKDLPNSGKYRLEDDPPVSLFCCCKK
How it was run: as §1

[3] = target: TRPML1 (Homo sapiens, UniProt Q9GZU1); experiment: Fluorescent TRPML1 assay (Fluo4-AM calcium fluorescence in doxycycline-induced HEK-293 Trex cells); format: cell-based
TRPML1 (Homo sapiens, UniProt Q9GZU1), sequence (Q9GZU1 whole entry L15A/L16A/L577A/L578A, form open): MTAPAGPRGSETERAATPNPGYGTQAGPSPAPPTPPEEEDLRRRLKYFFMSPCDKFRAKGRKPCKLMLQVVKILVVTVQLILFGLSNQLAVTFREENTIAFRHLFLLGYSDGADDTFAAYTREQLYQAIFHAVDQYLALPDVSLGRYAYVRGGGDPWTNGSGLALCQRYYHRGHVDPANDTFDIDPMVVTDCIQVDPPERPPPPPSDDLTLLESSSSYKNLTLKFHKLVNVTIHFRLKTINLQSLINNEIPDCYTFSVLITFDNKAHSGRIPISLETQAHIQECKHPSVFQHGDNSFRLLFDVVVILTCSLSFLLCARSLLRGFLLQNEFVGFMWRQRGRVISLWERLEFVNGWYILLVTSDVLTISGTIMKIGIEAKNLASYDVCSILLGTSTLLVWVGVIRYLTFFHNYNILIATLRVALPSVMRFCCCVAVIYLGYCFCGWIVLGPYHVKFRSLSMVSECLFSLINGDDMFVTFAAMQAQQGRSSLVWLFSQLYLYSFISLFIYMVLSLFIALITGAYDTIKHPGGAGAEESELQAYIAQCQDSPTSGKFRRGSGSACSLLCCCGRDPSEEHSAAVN
How it was run: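 hTRPML1 (mutated for cell-surface expression) in HEK-293 Trex, dox 0.5 ug/mL o/n; Fluo4-AM 1 uM ~60 min, then ~60 min de-esterification, dark; modified Ringer's + 10 mM Ca. Cmpds 20 uM–6 nM final, half-log, n=3. Ex480/Em540; % activity vs ctrls; EC50 by nonlinear regression.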

[4] = test system: TRPML1; conditions: cited from earlier work

Row | Compound | EC50 [1] [µM] | EC50 [2] [µM] | EC50 [3] [µM] | [Ca2+] increases ([4]; HEK293 cells stably or transiently expressing TRPML1 with its lysosomal targeting sequence deleted) | concentration needed to effectively activate TRPMLs ([4]; TRPMLs, high concentrations needed) [µM]
1 | C[C@H]1CN(C(=O)OC(C)(C)C)CCN1c1nccc2c1c(C1CCC1)cn2-c1cccc(F)c1 [Compound 706, tert-butyl (S)-4-(3-cyclobutyl-1-(3-fluorophenyl)-1H-pyrrolo[3,2-c]pyridin-4-yl)-3-methylpiperazine-1-carboxylate] | 0.5 to 2 | 0.1 to 0.5 | 0.1 to 0.5 | – | –
2 | [2H]C([2H])([2H])[C@@H]1CN(c2ncnc3c2c(C(F)(F)F)cn3-c2cc(C#N)ccn2)[C@@H](C)CN1C(=O)OC(C)(C)C [Compound 707, tert-butyl (2R,5S)-4-(7-(4-cyanopyridin-2-yl)-5-(trifluoromethyl)-7H-pyrrolo[2,3-d]pyrimidin-4-yl)-5-methyl-2-(methyl-d3)piperazine-1-carboxylate] | < 0.1 | < 0.1 | < 0.1 | – | –
3 | CC(C)(C)OC(=O)N1CCN(c2ncnc3c2c(C(F)(F)F)cn3-c2cc(C#N)ccn2)CC1 [Compound 708, tert-butyl 4-(7-(4-cyanopyridin-2-yl)-5-(trifluoromethyl)-7H-pyrrolo[2,3-d]pyrimidin-4-yl)piperazine-1-carboxylate] | 0.5 to 2 | 0.5 to 2 | 0.5 to 2 | – | –
4 | [2H]C([2H])([2H])[C@@H]1CN(c2ncnc3c(-c4cc(C#N)ccn4)cn(-c4ccccc4F)c23)[C@@H](C)CN1C(=O)OC(C)(C)C [Compound 709, tert-butyl (2R,5S)-4-(7-(4-cyanopyridin-2-yl)-5-(2-fluorophenyl)-5H-pyrrolo[3,2-d]pyrimidin-4-yl)-5-methyl-2-(methyl-d3)piperazine-1-carboxylate] | < 0.1 | < 0.1 | < 0.1 | – | –
5 | C[C@@H]1CN(c2ncnc3c2c(C2CCC2)cn3-c2cc(C#N)ccn2)[C@@H](C)CN1C(=O)OC(C)(C)C [Compound 710, tert-butyl (2R,5S)-4-(7-(4-cyanopyridin-2-yl)-5-cyclobutyl-7H-pyrrolo[2,3-d]pyrimidin-4-yl)-2,5-dimethylpiperazine-1-carboxylate] | 0.1 to 0.5 | < 0.1 | < 0.1 | – | –
6 | [2H]C([2H])([2H])[C@@H]1CN(c2ncnc3c2c(C2CC2)cn3-c2cc(C#N)ccn2)[C@@H](C)CN1C(=O)OC(C)(C)C [Compound 711, tert-butyl (2R,5S)-4-(7-(4-cyanopyridin-2-yl)-5-cyclopropyl-7H-pyrrolo[2,3-d]pyrimidin-4-yl)-5-methyl-2-(methyl-d3)piperazine-1-carboxylate] | 0.5 to 2 | 0.1 to 0.5 | < 0.1 | – | –
7 | [2H]C([2H])([2H])[C@@H]1CN(c2ncnc3c2c(-c2ccccc2F)cn3-c2cc(C#N)ccn2)[C@@H](C)CN1C(=O)OC(C)(C)C [Compound 712, tert-butyl (2R,5S)-4-(7-(4-cyanopyridin-2-yl)-5-(2-fluorophenyl)-7H-pyrrolo[2,3-d]pyrimidin-4-yl)-5-methyl-2-(methyl-d3)piperazine-1-carboxylate] | < 0.1 | < 0.1 | < 0.1 | – | –
8 | C#Cc1ccnc(-n2cc(C3CC3)c3c(N4C[C@@H](C)N(C(=O)OC(C)(C)C)C[C@@H]4C)ncnc32)c1 [Compound 715, tert-butyl (2R,5S)-4-(5-cyclopropyl-7-(4-ethynylpyridin-2-yl)-7H-pyrrolo[2,3-d]pyrimidin-4-yl)-2,5-dimethylpiperazine-1-carboxylate] | < 0.1 | < 0.1 | < 0.1 | – | –
9 | C#Cc1ccnc(-n2cc(C(F)(F)F)c3c(N4C[C@@H](C)N(C(=O)OC(C)(C)C)C[C@@H]4C)ncnc32)c1 [Compound 716, tert-butyl (2R,5S)-4-(7-(4-ethynylpyridin-2-yl)-5-(trifluoromethyl)-7H-pyrrolo[2,3-d]pyrimidin-4-yl)-2,5-dimethylpiperazine-1-carboxylate] | 0.5 to 2 | 0.1 to 0.5 | 0.1 to 0.5 | – | –
10 | CCc1ccnc(-n2cc(C3CC3)c3c(N4C[C@@H](C)N(C(=O)OC(C)(C)C)C[C@@H]4C)ncnc32)c1 [Compound 717, tert-butyl (2R,5S)-4-(5-cyclopropyl-7-(4-ethylpyridin-2-yl)-7H-pyrrolo[2,3-d]pyrimidin-4-yl)-2,5-dimethylpiperazine-1-carboxylate] | 0.1 to 0.5 | < 0.1 | < 0.1 | – | –
11 | CCc1ccnc(-n2cc(C(F)(F)F)c3c(N4C[C@@H](C)N(C(=O)OC(C)(C)C)C[C@@H]4C)ncnc32)c1 [Compound 718, tert-butyl (2R,5S)-4-(7-(4-ethylpyridin-2-yl)-5-(trifluoromethyl)-7H-pyrrolo[2,3-d]pyrimidin-4-yl)-2,5-dimethylpiperazine-1-carboxylate] | 0.5 to 2 | 0.1 to 0.5 | 0.1 to 0.5 | – | –
12 | ML-SA1 | – | – | – | significant [Ca2+] increases | ~10
